{"source": "patent US20030148954A1", "about": "“Agents and methods for modulating activator protein-1-mediated cellular processes” (Wisconsin Alumni Research Foundation, priority 2001, published 2003)", "key": {"AP-1 [1]": {"system": "AP-1", "assay": "EMSA of AP-1 DNA binding activity in nuclear extracts", "parameters": "species or system human", "conditions": "K562 cells treated with TPA", "protocol": "K562-Babe and K562-NIC-1 cells were harvested by centrifugation for 10 min at 150×g. Cells were washed once with ice-cold PBS and resuspended in 1.5 volumes of nuclei lysis buffer (10 mM Tris-HCl, pH 7.5, 10 mM NaCl, 3 mM MgCl2, and 0.2% Nonidet P-40) on ice for 3 min. Nuclei were collected by centrifugation for 5 min at 600×g. Nuclei were washed by gentle resuspension in 1.5 volumes of nuclei wash buffer (10 mM Tris-HCl, pH 7.5, 10 mM NaCl, and 3 mM MgCl2) and then collected by centrifugation for 4 min at 600×g. […] Nuclei were extracted for 45 min at 4° C. with constant mixing. The suspension was then centrifuged for 30 min at 150,000×g. Aliquots of the supernatant were frozen on dry ice and stored at -80° C. The protein concentration as measured by the Bradford assay, with y-globulin as a standard ranged from 4 to 10 mg/ml. DTT (5 mM), phenylmethanesulfonyl fluoride (0.5 mM), leupeptin (20 μg/ml), β-glycerophosphate (800 μM), sodium vanadate (1 mM), and sodium molybdate (50 μM) were included in all buffers. Electrophoretic Mobility Shift Assay-EMSA assays were done as described previously (54). AP-1 DNA binding activity was measured by EMSA with a double-stranded end-labeled oligonucleotide [NT] containing a high affinity AP-1 binding site. […] DNA binding activity was quantitated by PhosphorImager analysis with ImageQuant software (Molecular Dynamics)."}, "IL-8": {"system": "IL-8", "assay": "Northern blotting of IL-8 transcripts in K562-Babe and K562-NIC-1 cells", "type": "cell-based, human", "conditions": "K562-Babe cells, 5 nM TPA 12 h", "protocol": "(§1) Stable Transfection—K562 cells were stably transfected by electroporation with a Bio-Rad Gene pulser electroporator. Cells (5×10^6) were washed with ice-cold PBS, resuspended in 0.5 ml of ice-cold PBS, mixed with 5 μg linearized plasmid DNA, and subjected to electroporation (960 microfarad; 220 V) in a 0.4 cm-wide electroporation cuvette (BTX). pBabe and pNIC-1 were linearized with NotI. Cells were then added to 20 ml of complete IMEM, grown for 48 h, and diluted in complete IMEM containing 1.5 μg/ml puromycin (pools of K562-Babe and K562-NIC-1 cells). Stably transfected cells were analyzed for erythroid differentiation as soon as the pools were generated by benzidine staining to reduce the probability of phenotypic changes that may result from prolonged growth.\n(§2) Northern Blotting—Total RNA from K562-Babe and K562-NIC-1 cells was extracted with Triazol (Life Technologies, Inc.). Ten μg of RNA per sample was electrophoresed on a 1% agarose, 6.6% formaldehyde gel and then transferred overnight to a Magnacharge nylon membrane (Osmonics). RNA was cross-linked to the membrane by UV irradiation. Membranes were prehybridized for 30 min at 60° C. in ExpressHyb hybridization solution (Clontech). […] Radioactivity was quantitated by PhosphorImager analysis with ImageQuant software (Molecular Dynamics)."}, "AP-1 [2]": {"system": "AP-1", "assay": "AP-1 luciferase reporter, transient transfection of K562 cells", "type": "cell-based, human", "conditions": "K562, p1×AP1luc, no NIC-1", "source_text": "(§3) Plasmids—The pBabe-NIC-1 (pNIC-1) expression vector encoding constitutively active Notch-1 (NIC-1) was described previously (36,37,51). This vector was derived from the pBabe-puro retroviral vector and includes a cDNA sequence encoding amino acids 1759-2556 of human Notch-1 with a Myc tag fused to its carboxyl terminus. Human NIC-1 deletion mutants were generated by PCR using a full-length human Notch-1 expression vector as the template. The Notch-dependent reporter plasmid containing four CBF1 binding sites and an simian virus 40 promoter fused to luciferase (p4×CBF1luc) was described previously (52). The AP-1 reporter plasmid (p1×AP1luc) containing a collagenase promoter fragment (−73/+67) with a single AP-1 binding site in the luciferase reporter vector pGL2-basic (Promega) was described previously (53). The NF-κB reporter plasmid (p3×κBluc) containing three NF-κB binding sites and a minimal promoter fused to luciferase was a kind gift of Dr. Shigeki Miyamoto (University of Wisconsin Medical School). The pBabe-H-Ras(12V) expression vector encoding constitutively active H-Ras was a kind gift of Dr. Charming Der (University of North Carolina-Chapel Hill). This vector was derived from the pBabe-puro retroviral vector and includes a cDNA encoding H-Ras with a Gly to Val mutation at amino acid 12.\n(§4) Transient Transfections—K562 cells (5×10^5) were collected by centrifugation at 240×g for 8 min at 4° C. and resuspended in 4 ml of complete IMEM. Plasmid DNAs (1 μg of reporter and 2 μg of effector) were added to 150 μl of IMEM, incubated with Superfect (4 μl/1 μg DNA; Qiagen) for 10 min at room temperature and then added to cells.\n(§5) For each transfection, cells were incubated for 26 h after transfection and then treated with TPA (final concentration: 5 nM) or the vehicle (DMSO). After incubating for another 12 or 16 h, cells were harvested and assayed for luciferase activity. Luciferase activity was normalized by the protein content of the lysates, determined by Bradford assay using γ-globulin as a standard."}, "CMV enhancer": {"system": "CMV enhancer", "assay": "pCMVβgal β-galactosidase reporter, transient transfection of K562 cells", "type": "cell-based, human", "conditions": "K562, TPA treatment", "protocol": "as §4\n(§6) For each transfection, cells were incubated for 26 h after transfection and then treated with TPA (final concentration: 5 nM) or the vehicle (DMSO). […] Luciferase activity was normalized by the protein content of the lysates, determined by Bradford assay using γ-globulin as a standard."}, "AP-1 [3]": {"system": "AP-1", "assay": "AP-1 luciferase reporter, transient transfection of HeLa cells", "type": "cell-based, human", "source_text": "as §3, with “The pBabe-H-Ras(12V) expression vector encoding constitutively active H-Ras was a kind gift of Dr. Charming Der (University of North Carolina-Chapel Hill). This vector was derived from the pBabe-puro retroviral vector and includes a cDNA encoding H-Ras with a Gly to Val mutation at amino acid 12.” left out\nas §6"}, "human Aγ globin promoter": {"system": "human Aγ globin promoter", "assay": "pGL3γLuc reporter, transient transfection of K562 cells", "type": "cell-based", "conditions": "K562, TPA treatment", "protocol": "as §4, §5"}, "MMP1": {"system": "MMP1", "assay": "Northern blotting of MMP1 transcripts in K562-Babe and K562-NIC-1 cells", "type": "cell-based, human", "conditions": "K562-Babe cells, 5 nM TPA 12 h", "protocol": "as §1, §2"}, "NF-κB": {"system": "NF-κB", "assay": "NF-κB luciferase reporter (p3×κBluc), transient transfection of K562 cells", "type": "cell-based, human", "source_text": "as §3, with “The pBabe-H-Ras(12V) expression vector encoding constitutively active H-Ras was a kind gift of Dr. Charming Der (University of North Carolina-Chapel Hill). This vector was derived from the pBabe-puro retroviral vector and includes a cDNA encoding H-Ras with a Gly to Val mutation at amino acid 12.” left out\nas §6"}}, "data": [{"molecule": "CCCCCCCCCCCCCC(=O)O[C@@H]1[C@@H](C)[C@@]2(O)[C@@H](C=C(CO)C[C@]3(O)C(=O)C(C)=C[C@@H]23)[C@@H]2C(C)(C)[C@]12OC(C)=O", "note": "[TPA, reference compound]", "values": [{"measurement": "induction of AP-1 DNA binding activity", "setting": "AP-1 [1]", "result": "strongly induced"}, {"measurement": "induction of IL-8 transcript levels", "setting": "IL-8", "result": "strongly induced"}, {"measurement": "induction of AP-1 reporter activity by the activator", "setting": "AP-1 [2]", "result": "strongly induced"}, {"measurement": "increase of pCMVβgal activity", "setting": "CMV enhancer", "result": "strongly increased"}, {"measurement": "induction of AP-1 reporter activity by the activator", "setting": "AP-1 [3]", "result": "strongly induced"}, {"measurement": "increase of pGL3γLuc activity", "setting": "human Aγ globin promoter", "result": "~3", "unit": "fold"}, {"measurement": "induction of MMP1 transcript levels", "setting": "MMP1", "result": "strongly induced"}, {"measurement": "activation of NF-κB reporter gene by the activator", "setting": "NF-κB", "result": "strongly activated"}]}]}
